Test systems include COLO 205 colon; KM12 colon; A549 NSCLC; SNB-75 CNS; SK-MEL-2 melanoma; SF-268 CNS; SF-539 CNS; HCC-2998 colon; TK-10 renal; 786-0 renal.
Common to all, as to experiment: NCI anticancer screen, dose series, 48 h

Here are results for eight compounds from PubChem BioAssay (NCI).

Several values for one entry are separate records, joined by “and”; a condition that tells them apart may be missing. Equal values may be shown once.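 Briefly, cells in 96-well plates were exposed to five compound concentrations for 48 h, and endpoints were estimated by linear interpolation. The concentration for 50% growth inhibition is given as GI50. At the TGI there is no net growth.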 Some results are limits rather than exact numbers.

In the case of `COc1cc2c(=O)n(CCN)c3c4cc5c(cc4ccc3c2cc1OC)OCO5`, the GI50 in the test on COLO 205 colon is 0.352 µM; with KM12 colon, 0.913 µM; with A549 NSCLC it was 0.626 µM; in the test on SNB-75 CNS it was 0.892 µM; in the test on SK-MEL-2 melanoma, 3.69 µM; with SF-268 CNS, 0.423 µM. The GI50 is 0.893 µM in the test on SF-539 CNS, 1.08 µM in the test on HCC-2998 colon, 1.62 µM in the test with TK-10 renal and 0.464 µM in the test with 786-0 renal. The TGI turned out to be 2.11 µM in the test with COLO 205 colon; 2.47 µM in the test with KM12 colon; 2.36 µM in the test on A549 NSCLC; 3.35 µM in the test with SNB-75 CNS; 16.5 µM in the test with SK-MEL-2 melanoma; 2.14 µM in the test on SF-268 CNS. Besides, the TGI was found to be 2.25 µM in the test with SF-539 CNS, 2.47 µM in the test with HCC-2998 colon, 3.28 µM in the test with TK-10 renal and 1.97 µM with 786-0 renal.

Turning to `Cn1c2c(c3ccc(Cl)c(Cl)c31)C(C#N)C1(CCNCC1)NC2=O` (configuration not stated), the GI50 with COLO 205 colon is 1.19 µM; in the test with KM12 colon it was 1.6 µM; in the test with A549 NSCLC, 2.42 µM; with SNB-75 CNS it was 1.14 µM; in the test with SK-MEL-2 melanoma, 2.12 µM; with SF-268 CNS, 1.77 µM. Moreover, the GI50 in the test on SF-539 CNS was 2.03 µM; with HCC-2998 colon, 1.31 µM; in the test on TK-10 renal, 1.23 µM; with 786-0 renal, 1.66 µM. Besides, the TGI in the test with COLO 205 colon was 2.54 µM; with KM12 colon it was 3.03 µM; in the test with A549 NSCLC, 7.89 µM; in the test with SNB-75 CNS, 4.72 µM; with SK-MEL-2 melanoma, 4.73 µM; in the test on SF-268 CNS, 4.89 µM. The TGI in the test on SF-539 CNS is 6.34 µM; in the test with HCC-2998 colon, 2.69 µM; in the test with TK-10 renal it was 3.46 µM; in the test with 786-0 renal, 3.36 µM.

Take `COC(=O)C(CC(=O)Nc1ccc(C)cc1)C(=O)C(=O)Nc1ccccc1C(C)C` (configuration not stated): the TGI in the test with COLO 205 colon, in the test with KM12 colon, in the test on A549 NSCLC, with SNB-75 CNS, with SK-MEL-2 melanoma and in the test with SF-268 CNS was > 100 µM throughout. The TGI in the test with SF-539 CNS, with HCC-2998 colon, in the test with TK-10 renal and with 786-0 renal was > 100 µM throughout.

With `CCn1c(-c2nonc2N)nc2c(C#CC(C)(C)O)nc(OCCNC)cc21`, the GI50 in the test on COLO 205 colon is 4.84 µM; in the test with KM12 colon, 5.82 µM; in the test on A549 NSCLC, 8.27 µM; in the test on SNB-75 CNS it was 7.78 µM; in the test with SK-MEL-2 melanoma it was 6.64 µM; with SF-268 CNS it was 7.94 µM. Besides, the GI50 with SF-539 CNS was 6.11 µM; in the test on HCC-2998 colon, 5.34 µM; in the test with TK-10 renal, 6.35 µM; with 786-0 renal, 7.98 µM. Further, the TGI was 10.3 µM with COLO 205 colon; 23.3 µM with KM12 colon; > 25 µM with A549 NSCLC; > 25 µM in the test on SNB-75 CNS; 15.4 µM in the test on SK-MEL-2 melanoma; > 25 µM with SF-268 CNS. Moreover, the TGI in the test on SF-539 CNS is 20.7 µM; in the test with HCC-2998 colon it was > 25 µM; in the test on TK-10 renal, 20.4 µM; with 786-0 renal, > 25 µM.

In the case of `CC(=O)NC(CCCCNC(=O)NCCCl)C(=O)NCc1ccccc1` (configuration not stated), the TGI in the test with COLO 205 colon, with KM12 colon, with A549 NSCLC, in the test on SNB-75 CNS, with SK-MEL-2 melanoma and with SF-268 CNS was > 100 µM in each case. For the same compound, the TGI in the test on SF-539 CNS, with HCC-2998 colon, with TK-10 renal and in the test with 786-0 renal was > 100 µM each time.

With `O=C1c2cc(Cl)ccc2-c2c1c1ccc([N+](=O)[O-])cc1c(=O)n2CCCBr`, the GI50 in the test on COLO 205 colon was 3.37 µM; in the test on KM12 colon it was 20.8 µM; in the test with A549 NSCLC, 5.85 µM; in the test with SNB-75 CNS, 5.96 µM; with SK-MEL-2 melanoma, 82.6 µM; with SF-268 CNS, 1.65 µM. In addition, the GI50 in the test on SF-539 CNS is 3.94 µM; in the test with HCC-2998 colon, 42.6 µM; in the test with TK-10 renal, 61.9 µM; in the test with 786-0 renal, 2.62 µM. Besides, the TGI is > 100 µM in the test with COLO 205 colon; > 100 µM in the test on KM12 colon; > 100 µM in the test on A549 NSCLC; 64.2 µM in the test with SNB-75 CNS; > 100 µM in the test on SK-MEL-2 melanoma; > 100 µM in the test with SF-268 CNS. The TGI is > 100 µM with SF-539 CNS, > 100 µM in the test with HCC-2998 colon, > 100 µM with TK-10 renal and 9.31 µM in the test with 786-0 renal.

As to `N#CCCN(CCC#N)c1ccc(C(Sc2ccccc2)C(NC(=O)c2cc([N+](=O)[O-])ccc2Cl)C(=O)Sc2ccccc2)cc1` (configuration not stated), the GI50 in the test with COLO 205 colon is 2.9 µM; in the test on A549 NSCLC, 0.954 µM; in the test with SNB-75 CNS, 1.85 µM; in the test on SF-268 CNS, 1.27 µM; in the test on TK-10 renal it was 3.97 µM. Also, the TGI in the test with COLO 205 colon is 6.75 µM and 7.77 µM; with A549 NSCLC, 6.47 µM and 13.2 µM; in the test with SNB-75 CNS, 7.19 µM; in the test with SK-MEL-2 melanoma, 4.64 µM; in the test on SF-268 CNS, 8.86 µM and 5.95 µM; in the test on SF-539 CNS, 4.11 µM and 3.79 µM. Besides, the figures for the TGI in the test with HCC-2998 colon, in the test on TK-10 renal and with 786-0 renal were 19.7 µM, 9.62 µM and 3.95 µM, respectively.

On to `CC[PH+](CC)CC.O=COC1OC([S-])C(OC=O)C(OC=O)C1OC=O.[Au+]` (configuration not stated), for which the GI50 was 2.23 µM in the test with COLO 205 colon; 1.61 µM in the test with KM12 colon; 0.374 µM in the test with SNB-75 CNS; 1.47 µM in the test with SK-MEL-2 melanoma; 1.17 µM in the test on SF-268 CNS; 1.14 µM in the test on SF-539 CNS. For the same compound, the GI50 with HCC-2998 colon is 1.6 µM; in the test with TK-10 renal, 1.74 µM; in the test with 786-0 renal, 1.51 µM. The TGI with COLO 205 colon worked out at 4.7 µM; with KM12 colon, 3.19 µM; in the test on SNB-75 CNS, 1.77 µM; in the test on SK-MEL-2 melanoma it was 3.38 µM; in the test with SF-268 CNS it was 3.15 µM; with SF-539 CNS, 2.37 µM. Further, the TGI was 3.03 µM in the test on HCC-2998 colon, 3.39 µM in the test with TK-10 renal and 2.85 µM in the test with 786-0 renal.
